Measurements as given in patent publication US20240132431A1, “METHOD FOR ALKYLATING ACIDIC FUNCTIONAL GROUP” (Chugai Seiyaku Kabushiki Kaisha, priority 2021, published 2024).

Molecular target: T1, Bcl-2 protein (Recombinant Human Bcl-2 Protein) (Homo sapiens, UniProt P10415)
T1 construct: purchased Novus NBP2-34889
Test: Binding evaluation of mixture library compounds to Bcl-2 using AS-MS (affinity selection mass spectrometry)
In short: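 Readout is ASMS Ratio (%), (A−C)/B×100, from reversed-phase LC/MS of SEC-passed extracts, with protein-free unfiltered standard (B) and protein-free SEC blank (C). Recombinant human Bcl-2 at 20 μM final met ~1200 pooled compounds at […] each for 1 h, 23° C., dark, in Tris-HCl pH 7.4 buffer.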

T1 sequence (P10415 whole entry): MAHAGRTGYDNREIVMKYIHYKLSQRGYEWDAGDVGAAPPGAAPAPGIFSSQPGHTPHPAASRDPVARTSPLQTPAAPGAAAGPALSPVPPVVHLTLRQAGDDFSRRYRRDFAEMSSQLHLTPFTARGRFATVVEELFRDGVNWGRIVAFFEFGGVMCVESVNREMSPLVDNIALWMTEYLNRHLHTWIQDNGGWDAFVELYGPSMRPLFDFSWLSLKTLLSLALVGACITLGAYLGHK

Structure (SMILES)	ASMS ratio (%) (n = 1)	ASMS ratio (%) (n = 2)
CCOc1cccc(-c2cc(CN3CCN(c4ccc(C(=O)NS(=O)(=O)c5ccc(NCCSc6ccccc6)c(C(F)(F)F)c5)cc4)CC3)cc(OC(F)(F)F)c2)c1 [B2R063-01, 4-[4-[[3-(3-Ethoxyphenyl)-5-(trifluoromethoxy)phenyl]methyl]piperazin-1-yl]-N-[4-(2-phenylsulfanylethylamino)-3-(trifluoromethyl)phenyl]sulfonylbenzamide]	8.2	4.6
CCOc1cncc(-c2cc(CN3CCN(c4ccc(C(=O)NS(=O)(=O)c5ccc(NCCSc6ccccc6)c(C(F)(F)F)c5)cc4)CC3)cc(OC(F)(F)F)c2)c1 [B2R064-01, 4-[4-[[3-(5-Ethoxypyridin-3-yl)-5-(trifluoromethoxy)phenyl]methyl]piperazin-1-yl]-N-[4-(2-phenylsulfanylethylamino)-3-(trifluoromethyl)phenyl]sulfonylbenzamide]	4.2	−7.4
CCOc1cccc(-c2ccc(CN3CCN(c4ccc(C(=O)NS(=O)(=O)c5ccc(NCCSc6ccccc6)c(C(F)(F)F)c5)cc4)CC3)c3ccccc23)c1 [B2R065-01]	3.8	0.3
CCOc1cncc(-c2ccc(CN3CCN(c4ccc(C(=O)NS(=O)(=O)c5ccc(NCCSc6ccccc6)c(C(F)(F)F)c5)cc4)CC3)c3ccccc23)c1 [B2R066-01, 4-[4-[[4-(5-Ethoxypyridin-3-yl)naphthalen-1-yl]methyl]piperazin-1-yl]-N-[4-(2-phenylsulfanylethylamino)-3-(trifluoromethyl)phenyl]sulfonylbenzamide]	19.8	−10.7
CCOc1cccc(-c2csc(CN3CCN(c4ccc(C(=O)NS(=O)(=O)c5ccc(NCCSc6ccccc6)c(C(F)(F)F)c5)cc4)CC3)c2)c1 [B2R067-01, 4-[4-[[4-(3-Ethoxyphenyl)thiophen-2-yl]methyl]piperazin-1-yl]-N-[4-(2-phenylsulfanylethylamino)-3-(trifluoromethyl)phenyl]sulfonylbenzamide]	8.0	0.0
CCOc1cncc(-c2csc(CN3CCN(c4ccc(C(=O)NS(=O)(=O)c5ccc(NCCSc6ccccc6)c(C(F)(F)F)c5)cc4)CC3)c2)c1 [B2R068-01, 4-[4-[[4-(5-Ethoxypyridin-3-yl)thiophen-2-yl]methyl]piperazin-1-yl]-N-[4-(2-phenylsulfanylethylamino)-3-(trifluoromethyl)phenyl]sulfonylbenzamide]	0.0	0.0
CCOc1cccc(C#Cc2ccccc2CN2CCN(c3ccc(C(=O)NS(=O)(=O)c4ccc(NCCSc5ccccc5)c(C(F)(F)F)c4)cc3)CC2)c1 [B2R069-01, 4-[4-[[2-[2-(3-Ethoxyphenyl)ethynyl]phenyl]methyl]piperazin-1-yl]-N-[4-(2-phenylsulfanylethylamino)-3-(trifluoromethyl)phenyl]sulfonylbenzamide]	12.3	18.5
CCOc1cccc(-c2ccccc2CN2CCN(c3ccc(C(=O)NS(=O)(=O)c4ccc(NCCSc5ccccc5)c(C(F)(F)F)c4)nn3)CC2)c1 [B2R071-01, 6-[4-[[2-(3-Ethoxyphenyl)phenyl]methyl]piperazin-1-yl]-N-[4-(2-phenylsulfanylethylamino)-3-(trifluoromethyl)phenyl]sulfonylpyridazine-3-carboxamide]	14.3	−9.0
CCOc1cncc(-c2ccccc2CN2CCN(c3ccc(C(=O)NS(=O)(=O)c4ccc(NCCSc5ccccc5)c(C(F)(F)F)c4)nn3)CC2)c1 [B2R072-01, 6-[4-[[2-(5-Ethoxypyridin-3-yl)phenyl]methyl]piperazin-1-yl]-N-[4-(2-phenylsulfanylethylamino)-3-(trifluoromethyl)phenyl]sulfonylpyridazine-3-carboxamide]	21.4	11.4
CCOc1cccc(-c2ccc(CN3CCN(c4ccc(C(=O)NS(=O)(=O)c5ccc(NCCSc6ccccc6)c(C(F)(F)F)c5)nn4)CC3)cc2C)c1 [B2R073-01, 6-[4-[[4-(3-Ethoxyphenyl)-3-methylphenyl]methyl]piperazin-1-yl]-N-[4-(2-phenylsulfanylethylamino)-3-(trifluoromethyl)phenyl]sulfonylpyridazine-3-carboxamide]	24.0	0.0
CCOc1cccc(-c2ccc(CN3CCN(c4ccc(C(=O)NS(=O)(=O)c5ccc(NCCSc6ccccc6)c(C(F)(F)F)c5)nn4)CC3)c(CC)c2)c1 [B2R075-01, 6-[4-[[4-(3-Ethoxyphenyl)-2-ethylphenyl]methyl]piperazin-1-yl]-N-[4-(2-phenylsulfanylethylamino)-3-(trifluoromethyl)phenyl]sulfonylpyridazine-3-carboxamide]	8.6	0.0
CCOc1cncc(-c2ccc(CN3CCN(c4ccc(C(=O)NS(=O)(=O)c5ccc(NCCSc6ccccc6)c(C(F)(F)F)c5)nn4)CC3)c(CC)c2)c1 [B2R076-01, 6-[4-[[4-(5-Ethoxypyridin-3-yl)-2-ethylphenyl]methyl]piperazin-1-yl]-N-[4-(2-phenylsulfanylethylamino)-3-(trifluoromethyl)phenyl]sulfonylpyridazine-3-carboxamide]	3.9	19.7
CCOc1cccc(-c2ccc(CN3CCN(c4ccc(C(=O)NS(=O)(=O)c5ccc(NCCSc6ccccc6)c(C(F)(F)F)c5)nn4)CC3)cc2F)c1 [B2R077-01, 6-[4-[[4-(3-Ethoxyphenyl)-3-fluorophenyl]methyl]piperazin-1-yl]-N-[4-(2-phenylsulfanylethylamino)-3-(trifluoromethyl)phenyl]sulfonylpyridazine-3-carboxamide]	0.0	0.0
CCOc1cncc(-c2ccc(CN3CCN(c4ccc(C(=O)NS(=O)(=O)c5ccc(NCCSc6ccccc6)c(C(F)(F)F)c5)nn4)CC3)cc2F)c1 [B2R078-01, 6-[4-[[4-(5-Ethoxypyridin-3-yl)-3-fluorophenyl]methyl]piperazin-1-yl]-N-[4-(2-phenylsulfanylethylamino)-3-(trifluoromethyl)phenyl]sulfonylpyridazine-3-carboxamide]	15.8	11.7
CCOc1cncc(-c2ccc(CN3CCN(c4ccc(C(=O)NS(=O)(=O)c5ccc(NCCSc6ccccc6)c(C(F)(F)F)c5)nn4)CC3)c(OC)c2)c1 [B2R080-01, 6-[4-[[4-(5-Ethoxypyridin-3-yl)-2-methoxyphenyl]methyl]piperazin-1-yl]-N-[4-(2-phenylsulfanylethylamino)-3-(trifluoromethyl)phenyl]sulfonylpyridazine-3-carboxamide]	16.7	21.2
CCOc1cccc(-c2cc(CN3CCN(c4ccc(C(=O)NS(=O)(=O)c5ccc(NCCSc6ccccc6)c(C(F)(F)F)c5)nn4)CC3)cc(OCC)c2)c1 [B2R081-01, 6-[4-[[3-Ethoxy-5-(3-ethoxyphenyl)phenyl]methyl]piperazin-1-yl]-N-[4-(2-phenylsulfanylethylamino)-3-(trifluoromethyl)phenyl]sulfonylpyridazine-3-carboxamide]	21.1	−8.8
CCOc1cncc(-c2cc(CN3CCN(c4ccc(C(=O)NS(=O)(=O)c5ccc(NCCSc6ccccc6)c(C(F)(F)F)c5)nn4)CC3)cc(OCC)c2)c1 [B2R082-01, 6-[4-[[3-Ethoxy-5-(5-ethoxypyridin-3-yl)phenyl]methyl]piperazin-1-yl]-N-[4-(2-phenylsulfanylethylamino)-3-(trifluoromethyl)phenyl]sulfonylpyridazine-3-carboxamide]	0.0	0.0
CCOc1cccc(-c2cc(CN3CCN(c4ccc(C(=O)NS(=O)(=O)c5ccc(NCCSc6ccccc6)c(C(F)(F)F)c5)nn4)CC3)cc(OC(C)C)c2)c1 [B2R083-01, 6-[4-[[3-(3-Ethoxyphenyl)-5-propan-2-yloxyphenyl]methyl]piperazin-1-yl]-N-[4-(2-phenylsulfanylethylamino)-3-(trifluoromethyl)phenyl]sulfonylpyridazine-3-carboxamide]	31.9	−11.1
CCOc1cncc(-c2cc(OC)c(CN3CCN(c4ccc(C(=O)NS(=O)(=O)c5ccc(NCCSc6ccccc6)c(C(F)(F)F)c5)nn4)CC3)c(OC)c2)c1 [B2R086-01]	0.0	0.0
CCOc1cccc(-c2cc(CN3CCN(c4ccc(C(=O)NS(=O)(=O)c5ccc(NCCSc6ccccc6)c(C(F)(F)F)c5)nn4)CC3)cc(C(F)(F)F)c2)c1 [B2R087-01, 6-[4-[[3-(3-Ethoxyphenyl)-5-(trifluoromethyl)phenyl]methyl]piperazin-1-yl]-N-[4-(2-phenylsulfanylethylamino)-3-(trifluoromethyl)phenyl]sulfonylpyridazine-3-carboxamide]	3.8	7.1
CCOc1cncc(-c2cc(CN3CCN(c4ccc(C(=O)NS(=O)(=O)c5ccc(NCCSc6ccccc6)c(C(F)(F)F)c5)nn4)CC3)cc(C(F)(F)F)c2)c1 [B2R088-01, 6-[4-[[3-(5-Ethoxypyridin-3-yl)-5-(trifluoromethyl)phenyl]methyl]piperazin-1-yl]-N-[4-(2-phenylsulfanylethylamino)-3-(trifluoromethyl)phenyl]sulfonylpyridazine-3-carboxamide]	35.3	13.1
CCOc1cccc(-c2cc(CN3CCN(c4ccc(C(=O)NS(=O)(=O)c5ccc(NCCSc6ccccc6)c(C(F)(F)F)c5)nn4)CC3)cc(OC(F)(F)F)c2)c1 [B2R089-01]	3.4	−9.2
